Values belong to the molecule of their own block, whether it stands above or below them.
Assays:
TBL1 = target: T1, TBL1 (Homo sapiens, UniProt O60907); assay: TBL1 inhibition (Table 5); type: binding
T1 construct: full length recombinant human TBL1 or full length recombinant human β-catenin; purchased ABNOVA
T1 sequence (O60907 1-577): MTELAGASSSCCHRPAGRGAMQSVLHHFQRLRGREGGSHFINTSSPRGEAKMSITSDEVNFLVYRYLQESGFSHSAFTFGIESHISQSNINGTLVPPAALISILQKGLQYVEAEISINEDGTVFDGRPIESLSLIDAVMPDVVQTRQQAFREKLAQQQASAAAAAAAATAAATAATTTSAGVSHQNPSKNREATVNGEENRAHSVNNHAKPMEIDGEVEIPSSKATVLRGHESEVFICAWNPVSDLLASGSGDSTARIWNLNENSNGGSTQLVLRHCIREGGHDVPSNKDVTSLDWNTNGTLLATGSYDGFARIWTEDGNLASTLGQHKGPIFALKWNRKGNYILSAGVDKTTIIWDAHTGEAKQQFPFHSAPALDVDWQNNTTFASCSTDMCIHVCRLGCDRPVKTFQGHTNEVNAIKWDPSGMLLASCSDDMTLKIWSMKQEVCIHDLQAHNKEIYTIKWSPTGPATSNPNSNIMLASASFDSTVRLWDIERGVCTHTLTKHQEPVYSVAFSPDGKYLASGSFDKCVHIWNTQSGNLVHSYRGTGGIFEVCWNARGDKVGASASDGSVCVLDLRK
Description: Briefly, for homologous competitive assay, a single concentration of 50 nM of biotinylated compound was added to the wells containing TBL1 recombinant protein, in the presence of various concentrations of unlinked compound (range of 0.1 nM to 10 μM) diluted in binding buffer. The sealed plate was incubated for 2 h at RT, and then processed as described above. For the heterologous competitive binding assay, 75 nM of β-catenin was used in place of the biotinylated compound, and the bounded protein was detected by anti-β-catenin antibody (Cell Signaling Tech) followed by secondary HRP-conjugated antibody.
To determine whether the ability of BC2059 to interfere with TBL1:β-catenin complex formation is due to direct interaction between TBL1 or β-catenin and the compound, we performed saturation binding assays in a in vitro system. High affinity binding Elisa 96 well plate (Maxisorp, Nunc) was coated with 100 ul to each well of full length recombinant human TBL1 or full length recombinant human β-catenin diluted to a final concentration of 1 ug/ml in carbonate/bicarbonate coating buffer, sealed to prevent evaporation, and incubated O/N at 4° C. After washing the plate 3 times with PBS 0.05% Tween-20, and blocking the plate with 200 μl of PBS 1% BSA each well for 1 h at RT, 100 μl of biotinylated compound was added to each well containing the recombinant proteins, at concentration in the range of 0.1 nM to 10 μM, diluted in binding buffer (50 mM TrisHCl pH 7.4, 10 mM MgCl2). The sealed plate was incubated for 2 h at RT, washed 3 times with PBS 0.05% Tween-20, and then the bounded compound was detected by streptavidin-HRP conjugated antibody (Cell Signaling Tech) diluted in blocking buffer. Elisa was developed by addition of ABTS HRP substrate (SIGMA), and the optical density (OD) for each well was read with a microplate reader set to 405 nm. To validate the saturation binding assay, homologous and heterologous competitive binding experiment were performed in an in vitro system. Briefly, for homologous competitive assay, a single concentration of 50 nM of biotinylated compound was added to the wells containing TBL1 recombinant protein, in the presence of various concentrations of unlinked compound (range of 0.1 nM to 10 uM) diluted in binding buffer. The sealed plate was incubated for 2 h at RT, and then processed as described above. For the heterologous competitive binding assay, 75 nM of β-catenin was used in place of the biotinylated compound, and the bounded protein was detected by anti-β-catenin antibody (Cell Signaling Tech) followed by secondary HRP-conjugated antibody.

TBL1:β-catenin complex = target: T2, TBL1:β-catenin complex (Homo sapiens, UniProt O60907); assay: Sandwich ELISA capturing the TBL1:β-catenin complex from treated cell lysates; type: cell-based
T2 construct: endogenous in cells; host or cells: HCT15 (A2 also names HCT116)
T2 sequence (O60907 1-577): T1 sequence (O60907 1-577)
Description: HCT 15 cells are incubated with 20 mM LiCl to induce the Wnt pathway. After 24 h fresh medium with 20 mM LiCl and test agent is added at concentration in the range of 0.3 nM to 3 μM for 6 hours at 37° C. Protein lysates are prepared from cells lysed in RIPA buffer containing protease inhibitors, High affinity binding Sandwich Elisa assays were prepared in 96 well Maxisorp plates (NUNC) by coating with 100 μl in each well of unlabeled capture TBL1 antibody (Santa Cruz Biotech) diluted to a final concentration of 2 ug/ml in carbonate/bicarbonate coating buffer, and incubated 18 hours at 4° C. […] The sealed plate was incubated for 2 h at RT, washed 3 times with PBS 0.05% Tween-20, and then the complex and the recombinant protein was detected by antibody against β-catenin (Cell Signaling Tech) and secondary antibody HRP-conjugated (Sigma). Signal was detected by addition of ABTS HRP substrate
(SIGMA), and read with a microplate reader set to 405 nm.
To determine the amount of β-catenin captured, a standard curve was created using recombinant β-catenin (100 fg to 100 ng, Abnova) added instead of cell lysates in the above procedure. Intensity of signal was compared to values generated using test article treated lysates and approximate amount of bound beta catenin determined. […]

HCT116 cells = assay: Cell screening in HCT116 cells (Table 5); type: cell-based; conditions: Homo sapiens, HCT-116
[1] = target: T3, interaction of β-catenin with TBL1 (Homo sapiens, UniProt O60907); assay: Immunoprecipitation with TBL1 antibody and Western blot for β-catenin; type: cell-based; conditions: HCT15 cells treated for 6 h, Western blot
T3 construct: endogenous in cells; host or cells: HCT15 (A2 also names HCT116)
T3 sequence (O60907 1-577): T1 sequence (O60907 1-577)
Description: FIG. 2 depicts Western blot of an immunoprecipitation using TBL1 antibody. HCT15 cells were incubated with DMSO or indicated concentration of compound for 6 hours. Cell lysates were made and immunoprecipitated with TBL1 antibody. Proteins were separated on an SDS gel, transferred to a membrane and probed with antibodies to β-catenin and to TBL1. Briefly, the HCT15 cell line was seeded at 70% confluence in medium containing 10% FBS and penicillin/streptomycin. After 24 h the cells were treated with Compound 1 for 6 h. Cell lysates were harvested, precleared with protein NG sepharose (Santa Cruz Biotech), and TBL1 was immunoprecipitated using mouse TBL1 antibody (Santa Cruz Biotech) conjugated to protein G sepharose (Santa Cruz Biotech). Immunoprecipitated proteins were resolved on a 10% SDS-PAGE gel followed by transfer of proteins to a nitrocellulose membrane. Western blot analysis was done using antibodies to detect β-catenin protein (BD Transduction Laboratories) and TBL1 protein (Santa Cruz Biotech).

[2] = target: T4, full length recombinant human TBL1 (Homo sapiens, UniProt O60907); assay: Saturation binding assay with biotinylated compound on coated TBL1; conditions: biotinylated compound 0.1 nM to 10 μM, 2 h at room temperature; read-out: IC50 of binding to TBL1 at the equilibrium
T4 construct: full length recombinant human TBL1 or full length recombinant human β-catenin; purchased ABNOVA
T4 sequence (O60907 1-577): T1 sequence (O60907 1-577)
Description: (§1) Additionally, Compound 1 can be modified to contain a functional group, such as biotin, capable of being attached to a solid support and test agents identified that disrupt the binding of immobilized Compound 1 to TBL1 protein. High affinity binding Elisa 96 well plate (Maxisorp, Nunc) was coated with 100 μl to each well of full length recombinant human TBL1 or full length recombinant human β-catenin (ABNOVA) diluted to a final concentration of 1 μg/ml in carbonate/bicarbonate coating buffer, sealed to prevent evaporation, and incubated O/N at 4° C. […] The sealed plate was incubated for 2 h at room temperature, washed 3 times with PBS 0.05% Tween-20, and then the bounded compound was detected by streptavidin-HRP conjugated antibody (Cell Signaling Tech) diluted in blocking buffer. Elisa was developed by addition of ABTS HRP substrate (SIGMA), and the optical density (OD) for each well was read with a microplate reader set to 405 nm. […]
(§2) To determine whether the ability of BC2059 to interfere with TBL1:β-catenin complex formation is due to direct interaction between TBL1 or β-catenin and the compound, we performed saturation binding assays in a in vitro system. […] The sealed plate was incubated for 2 h at RT, washed 3 times with PBS 0.05% Tween-20, and then the bounded compound was detected by streptavidin-HRP conjugated antibody (Cell Signaling Tech) diluted in blocking buffer. […]

[3] = target: T5, full length recombinant human β-catenin (Homo sapiens, UniProt P35222); assay: Saturation binding assay with biotinylated compound on coated β-catenin; conditions: biotinylated compound 0.1 nM to 10 μM, 2 h at room temperature
T5 construct: full length recombinant human β-catenin (ABNOVA); purchased ABNOVA
T5 sequence (P35222 1-781): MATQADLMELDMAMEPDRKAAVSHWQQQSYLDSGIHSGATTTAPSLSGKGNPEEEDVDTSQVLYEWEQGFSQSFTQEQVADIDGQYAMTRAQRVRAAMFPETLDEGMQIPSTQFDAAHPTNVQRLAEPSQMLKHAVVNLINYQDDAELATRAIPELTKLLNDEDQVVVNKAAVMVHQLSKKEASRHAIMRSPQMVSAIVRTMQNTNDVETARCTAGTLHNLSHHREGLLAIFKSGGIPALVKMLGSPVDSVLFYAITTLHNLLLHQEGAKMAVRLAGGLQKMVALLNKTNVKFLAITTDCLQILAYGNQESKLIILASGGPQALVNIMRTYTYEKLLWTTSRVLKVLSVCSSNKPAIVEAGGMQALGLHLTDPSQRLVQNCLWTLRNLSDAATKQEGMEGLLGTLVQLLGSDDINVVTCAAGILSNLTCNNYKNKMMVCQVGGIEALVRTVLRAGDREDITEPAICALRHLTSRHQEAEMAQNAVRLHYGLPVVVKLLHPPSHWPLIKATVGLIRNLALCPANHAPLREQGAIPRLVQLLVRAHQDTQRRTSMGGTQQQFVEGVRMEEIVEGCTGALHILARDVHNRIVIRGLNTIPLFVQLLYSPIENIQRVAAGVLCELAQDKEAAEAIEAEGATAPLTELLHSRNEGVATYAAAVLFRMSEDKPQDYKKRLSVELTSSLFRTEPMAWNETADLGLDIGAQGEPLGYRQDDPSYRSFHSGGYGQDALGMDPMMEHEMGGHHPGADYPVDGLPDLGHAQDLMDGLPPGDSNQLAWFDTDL
Description: as §1, §2

- EC50 (TBL1): 0.29 µM
SMILES: Cc1ccc(CN(C)Cc2ccc(-c3nc(-c4cccnc4)cc(=O)[nH]3)cc2)o1 [Compound 11]

- EC50 (TBL1): 0.28 µM
SMILES: CN(Cc1ccncc1)Cc1ccc(-c2nc(-c3cccnc3)cc(=O)[nH]2)cc1 [Compound 10, 2-(4-((methyl(pyridin-4-ylmethyl)amino)methyl)phenyl)-6-(pyridin-3-yl)pyrimidin-4(3H)-one]

- EC50 (TBL1:β-catenin complex; compound 0.3 nM to 3 μM for 6 h, cell lysates, read-out: EC50 μM TBL1: β-Catenine): 0.41 µM
- EC50 (TBL1): 0.054 µM
- EC50 (HCT116 cells): 0.127 µM
SMILES: CC(Nc1ncnc2[nH]cnc12)c1cnn(-c2ccccc2F)c1 (stereo not shown) [Compound 15, N-(1-(1-(2-fluorophenyl)-1H-pyrazol-4-yl)ethyl)-9H-purin-6-amine]

- EC50 (TBL1): 102 µM
SMILES: CC(C)N(C)Cc1ccc(-c2nc(-c3cccnc3)cc(=O)[nH]2)cc1 [Compound 12, 2-(4-((isopropyl(methyl)amino)methyl)phenyl)-6-(pyridin-3-yl)pyrimidin-4(3H)-one]

- IC50 (TBL1:β-catenin complex; HCT 15 cells, 20 mM LiCl, test agent 6 hours, read-out: IC50, interference with TBL1 and β-catenin interaction): 10 to 20 nM
- IC50 [2]: 20 nM
- binding to β-catenin [3]: not β-catenin
SMILES: C[C@@H]1C[C@H](C)CN(S(=O)(=O)c2ccc3c(c2)C(=NO)c2cc(S(=O)(=O)N4C[C@H](C)C[C@H](C)C4)ccc2C3=NO)C1 [Compound 1]
- disruption of the interaction of β-catenin with TBL1 [1]: able to disrupt the interaction of β-catenin with TBL1
